The results in this text go back to ChEMBL document CHEMBL5505958, “Optimization of sequence and chiral content enhances therapeutic potential of tilapia piscidin peptides” (Eur J Med Chem, 2024).

One series concerns Lipopolysaccharide (LPS). Description: Displacement of BODIPY-TR-cadaverine from Klebsiella pneumoniae BAA 2473 lipopolysaccharide (LPS) assessed as increase in fluorescence intensity at 1.56 uM by fluorescence spectrophotometric analysis. Type of series: subcellular.
Series [1] is described as follows: Toxicity in C57BL/6 mouse assessed as change in GPT level in liver at 15 mg/kg, iv measured for 7 days. Type of series: organism-based. The conditions noted are these: in vivo, 168 h, time 7 day.
The subject of series [2] is Klebsiella pneumoniae. The series is described as follows: Antibacterial activity against Klebsiella pneumoniae BAA 2473 assessed as inhibition of bacterial growth in presence of meropenem. The class given is functional.
Series [3] has as its system Klebsiella pneumoniae. The series is described as follows: Antibacterial activity against Klebsiella pneumoniae BAA 2473 assessed as inhibition of bacterial growth in presence of doxycycline. The class given is functional.
The next series concerns Pseudomonas aeruginosa. The series is described as follows: Antibacterial activity against Pseudomonas aeruginosa 19660 assessed as inhibition of bacterial growth incubated for 16 to 20 hrs. The class given is functional. Particulars: time 16-20 hrs.
The next series has as its system Klebsiella oxytoca. The series is described as follows: Antibacterial activity against Klebsiella oxytoca 13985 assessed as inhibition of bacterial growth incubated for 16 to 20 hrs. Type of series: functional. Particulars: time 16-20 hrs.
Series [4] relates to Klebsiella pneumoniae. Description: Antimicrobial activity against drug-resistant Klebsiella pneumoniae BAA 2473 infected in C57BL/6 mouse assessed as fold reduction in bacterial load at 5 mg/kg, po administered for 2 hrs and measured at 24 hrs. The class given is functional.
Series [5] concerns Klebsiella pneumoniae. The series is described as follows: Antibacterial activity against Klebsiella pneumoniae TL 297 assessed as inhibition of bacterial growth incubated for 16 to 20 hrs. Type of series: functional. Particulars: time 16-20 hrs.
For series [6], the system named is Klebsiella pneumoniae. The series is described as follows: Antimicrobial activity against drug-resistant Klebsiella pneumoniae BAA 2473 infected in C57BL/6 mouse assessed as reduction in bacterial load at 5 mg/kg, po administered for 2 hrs and measured at 24 hrs. Particulars: time 26.0 hrs. Type of series: functional, organism-based.
The subject of series [7] is Klebsiella pneumoniae. The series is described as follows: Synergistic antibacterial activity against Klebsiella pneumoniae BAA 2473 assessed as fractional inhibitory concentration index in presence of ciprofloxacin by checkerboard assay. The class given is functional.
Series [8] concerns Klebsiella pneumoniae. The series is described as follows: Bactericidal activity against Klebsiella pneumoniae TL 297 assessed as inhibition of bacterial growth incubated for 16 to 20 hrs. Type of series: functional. The conditions noted are these: time 16-20 hrs.
Series [9] deals with Klebsiella pneumoniae. Description: Antibacterial activity against Klebsiella pneumoniae BAA 2473 assessed as ciprofloxacin MIC. Type of series: functional.
Series [10] concerns Staphylococcus aureus. Description: Antibacterial activity against Staphylococcus aureus 10780 assessed as inhibition of bacterial growth incubated for 16 to 20 hrs. The class given is functional. Particulars: time 16-20 hrs.
Series [11] has as its system Klebsiella pneumoniae. Description: Synergistic antibacterial activity against Klebsiella pneumoniae BAA 2473 assessed as fractional inhibitory concentration index in presence of doxycycline by checkerboard assay. Type of series: functional.
The test system of series [12] is Klebsiella pneumoniae. Description: Additive antibacterial activity against Klebsiella pneumoniae BAA 2473 assessed as fractional inhibitory concentration index in presence of meropenem by checkerboard assay. The class given is functional.
For series [13], the system named is Klebsiella pneumoniae. The series is described as follows: Antibacterial activity against Klebsiella pneumoniae BAA 2473 assessed as meropenem MIC. Type of series: functional.
For series [14], the system named is Staphylococcus aureus. Description: Bactericidal activity against Staphylococcus aureus 10780 assessed as inhibition of bacterial growth incubated for 16 to 20 hrs. Type of series: functional. The conditions noted are these: time 16-20 hrs.
In another series the test system is Cell membrane. The series is described as follows: Induction of outer cell membrane permeabilization in Klebsiella pneumoniae BAA 2473 assessed as increase in fluorescence intensity by PI staining based analysis. The class given is cell membranes.
The test system of a further series is Erythrocyte. Description: Hemolytic activity in human Red blood cells assessed as hemolysis at 3.13 uM incubated for 1 hrs. The class given is toxicity, cell-based.
The test system of series [15] is Klebsiella pneumoniae. Description: Antibacterial activity against Klebsiella pneumoniae BAA 2473 assessed as bacterial eradication measured at 2 hrs. The class given is functional.
Series [16] in a line: Toxicity in C57BL/6 mouse assessed as survival rate at 12.5 to 15 mg/kg, iv measured for 7 days. Type of series: organism-based. The conditions noted are these: in vivo, dose 12.5-15 mg/kg, time 7 day.
A short description of series [17]: Toxicity in C57BL/6 mouse assessed as change in body weight at 15 mg/kg, iv measured for 7 days. Type of series: organism-based. Particulars: in vivo, 168 h, time 7 day.
Series [18] is described as follows: Toxicity in C57BL/6 mouse assessed as effect on BUN level upto 10 mg/kg, iv measured for 7 days. Type of series: organism-based. Particulars: in vivo, 168 h, time 7 day.
A short description of series [19]: Toxicity in C57BL/6 mouse assessed as effect on GOT level in liver upto 7.5 mg/kg, iv measured for 7 days. The class given is organism-based. Particulars: in vivo, 168 h, time 7 day.
Series [20] is described as follows: Toxicity in C57BL/6 mouse assessed as mortality at 5 to 10 mg/kg, iv measured for 7 days. Type of series: organism-based. Particulars: in vivo, 168 h, dose 5-10 mg/kg, time 7 day.
The nature of series [21]: Toxicity in C57BL/6 mouse assessed as mortality at 20 mg/kg, iv measured for 2 days. The conditions noted are these: in vivo, time 2 day. Type of series: organism-based.
Series [22] is described as follows: Toxicity in C57BL/6 mouse assessed as increase in creatinine level upto 12.5 mg/kg, iv measured for 7 days. The class given is organism-based. Particulars: in vivo, 168 h, time 7 day.

In brackets after ≈: the same amount, converted by molar mass. Activity calls are given as the source filed them. The calls are words filed in the database; no cut-off is given here.

Turning to `CC(C)C[C@H](NC(=O)[C@@H](C)NC(=O)[C@@H](CCCCN)NC(=O)[C@H](CC(C)C)NC(=O)[C@@H](CC(C)C)NC(=O)[C@@H](CCCCN)NC(=O)[C@H](CCCCN)NC(=O)[C@@H](CC(C)C)NC(=O)[C@H](N)Cc1ccccc1)C(=O)N[C@H](Cc1ccccc1)C(=O)N[C@H](CO)C(=O)N[C@@H](C)C(=O)N1CCC[C@@H]1C(=O)N[C@H](CCCCN)C(=O)N[C@@H](C)C(=O)N[C@H](CC(C)C)C(=O)N[C@H](CCCCN)C(=O)N[C@@H](CCCNC(=N)N)C(=O)N[C@H](CC(C)C)C(=O)N[C@H](CC(C)C)C(=O)N[C@@H](CCCNC(=N)N)C(=O)N[C@H](CCCNC(=N)N)C(=O)N[C@H](CCCNC(=N)N)C(=O)N[C@@H](CCCNC(=N)N)C(=O)N[C@@H](CCCNC(=N)N)C(=O)O`, the outcome with Lipopolysaccharide (LPS), with Klebsiella pneumoniae [6] and in the series on Cell membrane was Active. The Activity result in [1] was “Non-Toxic”. In addition, the MIC (in general, the least concentration at which growth counts as inhibited) in the series on Klebsiella pneumoniae [2] was determined as 0.78 µM; in the series on Klebsiella pneumoniae [3], 0.39 µM; in the series with Pseudomonas aeruginosa it was 3.13 µM (≈ 9.64 µg/mL); with Klebsiella oxytoca, 3.13 µM (≈ 9.64 µg/mL); in the series on Klebsiella pneumoniae [5], 6.25 µM (≈ 19.2 µg/mL); with Klebsiella pneumoniae [9], 50 µM. The minimal inhibitory concentration (MIC) in the series on Staphylococcus aureus [10] was found to be 12.5 µM (≈ 38.5 µg/mL); in the series on Klebsiella pneumoniae [13], 400 µM. The “fold change (FC)” value in the series with Klebsiella pneumoniae [4] is listed as roughly 10. In addition, the “fractional inhibitory concentration index (FICI)” value is recorded as 0.562 with Klebsiella pneumoniae [7], 0.5 with Klebsiella pneumoniae [11] and 1.003 in the series with Klebsiella pneumoniae [12]. Also, the MBC with Klebsiella pneumoniae [8] and in the series on Staphylococcus aureus [14] was 6.25 µM (≈ 19.2 µg/mL) each time.

On to H-FIHHIIGGLFSAGKAIHRLIRRRRR-OH, for which the results for the Activity entry with Erythrocyte and in the series on Klebsiella pneumoniae [15] were “Non-Toxic” and 100%, respectively. Also, in the series with Staphylococcus aureus [10], the MIC amounted to 0.78 µM. Moreover, in the series with Staphylococcus aureus [14], the MBC – broadly, the lowest tested concentration that kills the bacteria rather than only halting them – stood at 0.78 µM.

Consider `CC(C)C[C@H](NC(=O)[C@H](CCCCN)NC(=O)[C@@H](CCCCN)NC(=O)[C@H](CC(C)C)NC(=O)[C@@H](N)Cc1ccccc1)C(=O)N[C@H](CC(C)C)C(=O)N[C@@H](CCCCN)C(=O)N[C@@H](C)C(=O)N[C@H](CC(C)C)C(=O)N[C@@H](Cc1ccccc1)C(=O)N[C@@H](CO)C(=O)N[C@H](C)C(=O)N1CCC[C@H]1C(=O)N[C@@H](CCCCN)C(=O)N[C@H](C)C(=O)N[C@@H](CC(C)C)C(=O)N[C@@H](CCCCN)C(=O)N[C@H](CCCNC(=N)N)C(=O)N[C@@H](CC(C)C)C(=O)N[C@@H](CC(C)C)C(=O)N[C@H](CCCNC(=N)N)C(=O)N[C@@H](CCCNC(=N)N)C(=O)N[C@@H](CCCNC(=N)N)C(=O)N[C@H](CCCNC(=N)N)C(=O)N[C@@H](CCCNC(=N)N)C(=O)O`, for which the survival at 168 h in series [16] was found to be 80%. For the same compound, the result in the series on Lipopolysaccharide (LPS) and in the series with Cell membrane was Active. Further, the MIC is 0.78 µM in the series with Klebsiella pneumoniae [2]; 0.39 µM with Klebsiella pneumoniae [3]; 3.13 µM (≈ 9.64 µg/mL) with Pseudomonas aeruginosa; 1.56 µM (≈ 4.8 µg/mL) in the series on Klebsiella oxytoca; 12.5 µM (≈ 38.5 µg/mL) in the series with Klebsiella pneumoniae [5]; 0.195 µM in the series on Klebsiella pneumoniae [9]. Also, in the series on Klebsiella pneumoniae [13], the MIC is 3.12 µM. The Activity entry in series [17], in series [18], in series [19], in [20] and in series [22] was “Non-Toxic” each time. In addition, the outcome in the series with Klebsiella pneumoniae [6] was inactive. In addition, the “fractional inhibitory concentration index (FICI)” value in the series on Klebsiella pneumoniae [7] is 1.003; in the series with Klebsiella pneumoniae [11], 0.375; with Klebsiella pneumoniae [12], 1. For the same compound, the MBC with Klebsiella pneumoniae [8] was 6.25 µM (≈ 19.2 µg/mL). In addition, the mortality (usually the share of the test organisms that died) at 48 h in series [21] is 100%.
